Patent publication US20210018504A1, “SHON AS A PROGNOSTIC BIOMARKER FOR CANCER AND AS A PREDICTOR OF RESPONSE TO ENDOCRINE THERAPY” (priority 2012, published 2021)

Tests used:
MCF7-SHON cells = assay: Total cell number assays in MCF7-Vec and MCF7-SHON stable cells; assay type: cell-based, human
Method: (§1) FIGS. 12A-C. SHON is an estrogen inducible gene. (A) RT-PCR. MCF-7 cells were cultured for 24 h in RPMI media containing 10% foetal bovine serum (FBS). Prior to 17β-estradiol (E2) treatment, cells were further cultured for 72 h in phenol red-free medium containing 10% charcoal stripped-FBS. Cells were then treated with 10 nM of E2. Total RNAs were isolated from the cells at indicated time points and the expression of SHON mRNA was determined by One-Step RT-PCR kits (Qiagen) with the SHON-specific primer pairs of SHONc5 and SHONc3 (Table 1). β-ACTIN was included as the RNA input control using forward primer: 5′-ATCATATCGCCGCGCTCG-3′ (SEQ ID NO: 9) and reverse primer: 5′-CGCTCGGTGAGGATCTTCA-3′ (SEQ ID NO: 10). The bp sizes of amplified products are shown on the right. (B) MCF7-Vec and MCF7-SHON cells were treated with DMSO vehicle (−) or 10 nM of E2 (+) for 72 h in phenol red-free medium containing 10% charcoal stripped-FBS. The expression of SHON in whole cell lysates was determined by Western blot with the rabbit polyclonal SHONα antibody. Molecular weights of detected protein bands are shown on the right. (C) Total cell number assays. MCF7-Vec and MCF7-SHON stable cells were seeded in phenol-red free RPMI media with 10% charcoal stripped FBS. […] The cell number was determined at the days indicated. […] The cell number was determined at the indicated days. **, P<0.01; ***, P<0.001. […]

SHON = SHON expression in MCF-7 cells after 17β-estradiol treatment (RT-PCR, Western blot); assay type: cell-based, human
Method: as §1

breast cancer = conditions: adjuvant therapy for 5 years, cited from earlier work

**Q.** What does the source list for `C[C@]12CC[C@@H]3c4ccc(O)cc4CC[C@H]3[C@@H]1CC[C@@H]2O` [E2, 17β-estradiol]?
**A.** cell number (MCF7-SHON cells; 10 nM E2, MCF7-SHON compared with MCF-Vec cells): synergistic increase in cell number; SHON mRNA levels (SHON; 10 nM E2, MCF-7 cells, RT-PCR): increase in SHON mRNA levels in a time dependent manner; SHON protein expression (SHON; 10 nM E2 for 72 h, MCF7-Vec and MCF7-SHON cells, Western blot): increased

**Q.** For `CC/C(=C(\c1ccccc1)c1ccc(OCCN(C)C)cc1)c1ccccc1` [tamoxifen], which “absolute reduction in mortality” value (breast cancer; at 15 years) is on record?
**A.** 9.2%

**Q.** What about the “reduction in the annual breast cancer death rate” value (breast cancer) of the same compound?
**A.** 34%

**Q.** Which SHON-stimulated growth (MCF7-SHON cells; 100 nM ICI, ER+ MCF-7 cells) does the source give for `C[C@]12CC[C@@H]3c4ccc(O)cc4C[C@@H](CCCCCCCCC[S+]([O-])CCCC(F)(F)C(F)(F)F)[C@H]3[C@@H]1CC[C@@H]2O` (stereo partly drawn) [ICI 182780] here?
**A.** partially attenuated SHON-stimulated growth advantages
